Here are results for four compounds from US8058309B2, “Protein kinase modulators and therapeutic uses thereof” (Novotyr Therapeutics Ltd., priority 2006, dated 2011).

Like-named read-outs stand apart in the source and are kept apart here.

One assay deals with A2780 tumors. Nature of the assay: Ovarian cancer A2780 xenograft tumor growth. It counts as in vivo, nude mice. The settings on record: for Inhibition of ovarian tumor growth, comparative study: A2780, IP once a day, 20 mg/kg (FIG. 13); for Growth inhibition of ovarian cancer A2780 tumors / Growth inhibition of ovarian A2780 tumors: IP, 1/day; for Growth inhibition of ovarian cancer A2780 tumors: 20 mg/kg (FIG. 12); for Growth inhibition of ovarian A2780 tumors: 50 mg/kg. The method, then:
Human hormone-refractory prostate cancer PC3 cells (ATCC, 1.5×10^6 cells per mouse) were injected subcutaneously into the right leg of Nude:Hsd mice (purchased from Harlan). Ten days later, when palpable tumors had developed, mice were divided into 3 groups with similar average tumor size. […] The mice treated with compound 7 group were daily injected with compound 7 dissolved in the below described vehicle, and the vehicle-treated group (veh) was daily injected by the vehicle alone. Vehicle included 4.4% DMSO, 1.2% Ethanol and 50% PEG400 in DDW; Groups were composed of 3 mice per group. Dose administered IP was 50 mg/Kg (4 ml/Kg) once a day for one month. The length (l) and the width (w) of the tumors were measured every day and the volumes of the tumors were calculated as follows: v=1w^2/2. Graphs present average volumes of the tumors versus time in days. The procedure was followed for the other described in-vivo studies with the following modifications:
Human ovary cancer A2780 cells (from ECACC, 2×10^6 cells per mouse) were injected subcutaneously into the right leg of female Nude:Hsd mice (purchased from Harlan). Inhibitors were injected IP daily at doses of 20 mg/kg (Exp. 2&3) or 50 mg/kg (Exp. 4) dissolved in 4.4% DMSO, 0.12% EtOH, 50% PEG-400 in DDW at volume of 4 ml/kg. The Veh group received 4.4% DMSO, 0.12% EtOH, 50% PEG-400 in DDW at volume of 4 ml/kg.

Another assay concerns SKOV-3. Nature of the assay: Proliferation assay SKOV-3. It counts as cell-based. The settings on record: Homo sapiens, SK-OV-3, Ovarian, 72 hours. As for the experimental part:
(§1) Various cancer cell lines (listed in table 1) were plated at a density of 1000-5000 cells/well in 96-well plates in 90111 growth medium containing 10% FCS, 100 units/ml penicillin and 100 μg/ml streptomycin. Inhibitors were added a day later in 10 μl of 1% DMSO in DDW to obtain final concentrations of 0, 0.1, 0.3, 1, 3, and 10 μM. The final concentration of DMSO (0.1% DMSO) was kept constant in all samples. Medium with inhibitors was refreshed a day and two days later. Following exposure of the cells to the inhibitors for 72 hours at 37° C., the cells were fixed in 0.5% gluteraldehyde in medium for 10 min, washed three times with DDW, once with 0.1M sodium borate buffer pH 8.5 and stained with 1% methylene blue dissolved in 0.1M borate buffer solution for 60 min. Excess dye was washed out and cell-bound dye was eluted with 200 μl/well of 0.1 M HCl. The optical density value was read at 620 nm in ELISA plate reader. The data was analyzed in Microsoft Excel, using the vehicle control as 100% proliferation. The assays were performed in triplicates. The values in table 1 represent IC50 values derived from the dose-dependent growth curves obtained.
(§2) Compounds 6, 7, 8, and 9 were tested for their inhibitory potential in cell proliferation assay. In this assay cells were exposed to increasing concentrations of the molecules (at 0.1% DMSO in all wells) a day after seeding. Medium and inhibitors were refreshed every day, and following three days of treatment, cells were fixed and stained with methylene-Blue. IC50 values were determined from the curves of the optical density against compound concentration. The assay was performed in triplicates.

Assay [1] relates to U138MG. Nature of the assay: Proliferation assay U138MG. The assay is classed as cell-based. The settings on record: Homo sapiens, U138-MG, Glioma, 72 hours. The method, then: as §1, §2
For another assay, the system named is LNCaP. In words: Proliferation assay LNCaP. The assay is classed as cell-based. As to conditions: Homo sapiens, Prostate, 72 hours. The method, then: as §1, §2
The test system of another assay is NCl-H1975. In words: Proliferation assay NCl-H1975. It counts as cell-based. The settings on record: Lung, 72 hours. The method, then:
as §1, §2

Another assay concerns BAF3 Bcr-Abl. Nature of the assay: Proliferation assay BAF3 Bcr-Abl. The assay is classed as cell-based. As to conditions: Mus musculus, Pro B, 72 hours. As for the experimental part: as §1, §2
Another assay concerns MDA MB 231. Nature of the assay: Proliferation assay MDA MB 231. The assay is classed as cell-based. As to conditions: Homo sapiens, Breast, 72 hours. The method, then:
as §1, §2

In assay [2] the test system is U138MG. Nature of the assay: Clonogenic assay U138MG. As to conditions: Homo sapiens, U138-MG, Glioma. It counts as cell-based. The method, then: (§3) Various cancer cells (listed in table 1) were seeded at a very low concentration (19 cells/well in 96-well plates or 63 cells/well in 24-well plates) in growth medium. A day later medium was replaced with growth medium containing various concentrations of inhibitors in a final concentration of 0.1% DMSO. The inhibitor-containing medium was refreshed three times a week. Following approximately two weeks cells were fixed by adding Gluteraldehide (0.5% final concentration) for 10 min, washed three time with DDW, once with borate buffer 0.1M and stained for 1 hour with 1% Methylene Blue in borate buffer 0.1M. Access stain was washed with water, and following drying colonies were counted. Alternatively, stain was extracted by 0.1N HCl for 1 hour and absorbance at 620 nm was measured by ELISA Reader. The assays were performed in triplicates. The values in table 1 represent IC50 values derived from the dose-dependent growth curves obtained.

The next assay deals with NCl-H526. Nature of the assay: Proliferation assay NCl-H526. It counts as cell-based. As to conditions: Lung, 72 hours. As for the experimental part:
as §1, §2

A further assay deals with T1, IGF1R (Homo sapiens, UniProt P08069).
T1 construct: made in house
T1 sequence (P08069 31-1367, species assumed): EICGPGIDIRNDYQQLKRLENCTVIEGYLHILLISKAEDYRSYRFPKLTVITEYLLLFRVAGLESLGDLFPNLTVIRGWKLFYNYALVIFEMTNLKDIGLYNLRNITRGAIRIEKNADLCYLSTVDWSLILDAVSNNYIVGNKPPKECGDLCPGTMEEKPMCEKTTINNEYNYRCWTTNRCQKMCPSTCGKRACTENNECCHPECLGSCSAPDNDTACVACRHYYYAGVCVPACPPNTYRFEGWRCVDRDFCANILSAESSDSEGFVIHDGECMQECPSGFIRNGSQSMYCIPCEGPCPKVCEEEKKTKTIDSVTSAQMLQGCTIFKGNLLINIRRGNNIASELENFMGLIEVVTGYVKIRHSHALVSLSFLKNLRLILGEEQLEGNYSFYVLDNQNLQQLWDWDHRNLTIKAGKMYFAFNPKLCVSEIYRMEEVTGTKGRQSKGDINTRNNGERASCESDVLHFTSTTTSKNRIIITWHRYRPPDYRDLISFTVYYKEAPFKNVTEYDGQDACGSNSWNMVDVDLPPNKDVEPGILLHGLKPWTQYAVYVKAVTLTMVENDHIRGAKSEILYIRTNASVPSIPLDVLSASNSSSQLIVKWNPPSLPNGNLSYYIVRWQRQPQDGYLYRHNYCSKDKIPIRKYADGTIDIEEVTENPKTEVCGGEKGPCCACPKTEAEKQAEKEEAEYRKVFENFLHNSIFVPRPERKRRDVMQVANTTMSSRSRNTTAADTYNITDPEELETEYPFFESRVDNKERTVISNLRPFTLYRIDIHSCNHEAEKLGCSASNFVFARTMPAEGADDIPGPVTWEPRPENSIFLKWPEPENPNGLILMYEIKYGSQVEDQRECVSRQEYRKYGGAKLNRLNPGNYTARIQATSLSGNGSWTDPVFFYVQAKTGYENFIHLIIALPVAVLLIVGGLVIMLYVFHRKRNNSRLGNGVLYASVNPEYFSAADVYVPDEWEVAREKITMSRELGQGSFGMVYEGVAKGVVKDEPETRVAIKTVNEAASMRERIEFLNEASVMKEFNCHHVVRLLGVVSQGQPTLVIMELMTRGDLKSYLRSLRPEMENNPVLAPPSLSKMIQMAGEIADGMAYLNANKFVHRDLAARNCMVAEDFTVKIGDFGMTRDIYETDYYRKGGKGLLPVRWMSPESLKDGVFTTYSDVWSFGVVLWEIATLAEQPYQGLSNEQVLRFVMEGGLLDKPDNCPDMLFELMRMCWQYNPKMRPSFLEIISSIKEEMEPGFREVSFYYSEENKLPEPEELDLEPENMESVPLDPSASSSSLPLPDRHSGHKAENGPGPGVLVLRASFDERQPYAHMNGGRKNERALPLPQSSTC
Nature of the assay: IGF1R cellular free kinase assay (pGT substrate phosphorylation). It counts as biochemical. As to conditions: for Competition with ATP (kinetic studies): elevation of ATP concentration. The method, then: The general protein-tyrosine kinase substrate, poly(Glu,Tyr) 4:1 (pGT), was coated onto a 96-well Maxisorp plates (Nunc) by adding 125 μl of 0.1 mg/ml pGT in PBS to each well. Plates were sealed and incubated for 16 hours at 37° C., washed once with TBST (10 mM Tris-HCl, pH 7.5, 50 mM NaCl, and 0.1% Triton X-100) and once with DDW, dried for 2-3 hours, and stored at 4° C. […] The plate was then washed with TBS with 0.2% Tween 20 (TBST) and blocked with 0.5% BSA in TBST. Mouse monoclonal anti-phosphotyrosine antibody, conjugated to Horse radish peroxidase (PT-66, 1:50000) was added to the plate. Following incubation for 45 min at room temperature, the plate was washed repeatedly with TBST. Detection was carried out with a color reagent, 2,2′-azido-bis-3-ethylbenzithiazoline-6-sulfonic acid, in citrate-phosphate buffer, pH 4.0, with 0.004% H2O2 for 10 min and monitored at 405 nm, all at room temperature. IC50 values of inhibitors were calculated using the REGRESSION program. The assay was optimized with respect to the amount of IGF-1R (partially purified from cells overexpressing IGF1R), reaction time, and ATP concentration. The signal was linear for 30 min in the range of IGF1R protein concentrations up to 35 ng/well.

In another assay the test system is PC3. In words: Clonogenic assay PC3. The assay is classed as cell-based. As to conditions: Homo sapiens, PC-3, Prostate. The method, then: as §3
Setting [3] is: partially purified IGF1R, 20 μM ATP, read-out: IC50 values of IGF1R activity in cellular free kinase assay.
[4] abbreviates: [ATP] 2.5 μM, read-out: IC50, competition with ATP in cellular free kinase assay of IGF1R.
The mark [5] stands for this setting: [ATP] 5 μM, read-out: IC50, competition with ATP in cellular free kinase assay of IGF1R.
Setting [6] is: [ATP] 10 μM, read-out: IC50, competition with ATP in cellular free kinase assay of IGF1R.
Setting [7] is: [ATP] 20 μM, read-out: IC50, competition with ATP in cellular free kinase assay of IGF1R.
The mark [8] stands for this setting: [ATP] 50 μM, read-out: IC50, competition with ATP in cellular free kinase assay of IGF1R.

As a reminder, the IC50 is the midpoint of a concentration-inhibition curve.

`Oc1cc(CNC(=S)/C=C/c2cc(O)c(O)c(Br)c2)cc(O)c1O` [Compound 9]: the “Inhibition of ovarian tumor growth, comparative study” value (shortened to “Inhibition of ovarian tumor growth”) in the assay with A2780 tumors is “approximately 90%”. In addition, the concentration for half-maximal inhibition (IC50) in the assay with SKOV-3 is 4300 nM; in the assay with U138MG [1] it was 200 nM; with LNCaP it was 4700 nM; with NCl-H1975, 2700 nM; in the assay with BAF3 Bcr-Abl, 6100 nM; in the assay on MDA MB 231, above 10000 nM. Moreover, the 50% inhibitory concentration (IC50) was 500 nM in the assay with U138MG [2], above 10000 nM with NCl-H526, 78 nM on IGF1R (setting [3]) and 1200 nM in the assay on PC3.
As to `N#C/C(=C\c1cc(O)c(O)c(I)c1)C(=S)NCc1cc(O)c(O)c(O)c1` [Compound 8], the “Inhibition of ovarian tumor growth” value with A2780 tumors is listed as “approximately 90%”. Further, the “Growth inhibition of ovarian cancer A2780 tumors” value with A2780 tumors is on record as 87%. For the same compound, the “Growth inhibition of ovarian A2780 tumors” value with A2780 tumors (tumors larger than 50 mm^3 at start) was 82%; in the assay on A2780 tumors (tumors larger than 470 mm^3 at start), “approximately 85%”. Besides, the IC50 in the assay with SKOV-3 was 3500 nM; in the assay with U138MG [1], 800 nM; with LNCaP it was 7700 nM; in the assay on NCl-H1975, 2300 nM; with BAF3 Bcr-Abl, above 10000 nM; in the assay with MDA MB 231, 7400 nM. Also, the IC50 with U138MG [2] is 1600 nM; in the assay with NCl-H526, above 10000 nM; at IGF1R (setting [4]), 190 nM; at IGF1R (setting [5]), 110 nM; at IGF1R (setting [6]), 100 nM; on IGF1R (setting [7]), 80 nM. For the same compound, the 50% inhibitory concentration (IC50) on IGF1R (setting [8]) worked out at 100 nM; on IGF1R (setting [3]), 76 nM; in the assay with PC3, 1000 nM. The “Competition with ATP (kinetic studies)” value at IGF1R is “do not compete with ATP”.
Take `N#C/C(=C\c1cc(O)c(O)c(Br)c1)C(=S)NCc1cc(O)c(O)c(O)c1` [Compound 7]: the “Inhibition of ovarian tumor growth” value in the assay on A2780 tumors is “approximately 90%”. Further, the “Growth inhibition of ovarian cancer A2780 tumors” value in the assay with A2780 tumors was found to be 87%. For the same compound, the IC50 with SKOV-3 is 5300 nM; with U138MG [1] it was 800 nM; in the assay on LNCaP, above 10000 nM; with NCl-H1975, 2500 nM; with BAF3 Bcr-Abl it was 8200 nM; with MDA MB 231, 6300 nM. Further, the IC50 in the assay with U138MG [2] is 1800 nM; in the assay on NCl-H526 it was above 10000 nM; at IGF1R (setting [4]), 190 nM; at IGF1R (setting [5]), 163 nM; on IGF1R (setting [6]), 124 nM; on IGF1R (setting [7]), 90 nM. Further, the values for the IC50 at IGF1R (setting [8]), at IGF1R (setting [3]) and in the assay on PC3 were 80 nM, 116 nM and 4200 nM, respectively. In addition, the “Competition with ATP (kinetic studies)” value on IGF1R is recorded as “do not compete with ATP”.
In the case of `N#C/C(=C\c1cc(O)c(O)c(Br)c1)C(=S)NCc1cc(O)c(O)c(Br)c1` [Compound 6], in the assay with A2780 tumors, the “Inhibition of ovarian tumor growth” value is 33%. The half-inhibitory concentration (IC50) in the assay with SKOV-3 was above 10000 nM; with U138MG [1], 2000 nM; in the assay on LNCaP, above 10000 nM; in the assay with NCl-H1975, above 10000 nM; with BAF3 Bcr-Abl it was 7700 nM; with MDA MB 231, above 10000 nM. The IC50 was 2200 nM with U138MG [2]; above 10000 nM in the assay on NCl-H526; 74 nM at IGF1R (setting [4]); 56 nM at IGF1R (setting [5]); 92 nM on IGF1R (setting [6]); 55 nM at IGF1R (setting [7]). The concentration for half-maximal inhibition (IC50) at IGF1R (setting [8]) turned out to be 98 nM; on IGF1R (setting [3]) it was 98 nM; with PC3 it was 700 nM. For the same compound, the “Competition with ATP (kinetic studies)” value on IGF1R is “do not compete with ATP”.
